These results are taken from patent publication US9926276B2, “Substituted benzamides with activity towards EP4 receptors” (DRACONIS PHARMA, S.L., priority 2013, dated 2018).

Assay [1] deals with T1, human EP4 receptor (Homo sapiens, UniProt P35408). Kind of assay: Measurement of cAMP responses by Homogeneous Time Resolved Fluorescence (Test 2). It is filed as cell-based. On the set-up: expressed in transfected cells. To be noted: for Results of Test 2 (Functional assay, antagonist % inh): at 10 μM, PGE2 1 nM, HEK-293 cells stably expressing human EP4; for inhibition at 10 µM: HEK293, PGE2 1 nM, HEK-293 cells stably expressing human EP4, read-out: Results of Test 2 (Functional assay, antagonist % inh). The procedure: Test 2: Measurement of cAMP Responses by Homogeneous Time Resolved Fluorescence
cAMP measurements on HEK-293 cells that stably expressed human EP4 receptors were performed by using a system based on Homogeneous Time Resolved Fluorescense (HTRF). This technology allows the direct measurement of cAMP in living cells. The principle of this assay is based on competition between cAMP produced by cells and cAMP-d2 conjugate for the binding with monoclonal anti-cAMP-cryptate conjugate. The HTRF cAMP kit from CisBio was used according to the manufacturer's directions. The experimental procedure was performed as stated below.
Suspended cells (30,000 cells per well) were added to 96-well culture plates in 30 μl of Optimem supplemented with 500 μM IBMX. Compounds were then added in 10 μl of stimulation buffer and incubated at 25° C. for 30 minutes followed by 10 μl of PGE2 to a final concentration of 1 nM. After 30 minutes at 25° C., the reaction was stopped lysing the cells with a mixture of 25 μl of cryptate and 25 μl of cAMP-d2 prepared in the lysis buffer supplied by the manufacturer. Plates were incubated for an additional hour at room temperature and read at 665 nm/620 nm using an UltraEvolution Plate reader (Tecan).
Antagonist percentage inhibition was calculated relating compounds activity to the 0% inhibition of the wells incubated with 1 nM PGE2 alone and 100% inhibition of the wells incubated with 1 nM PGE2 plus 1 μM of the reference antagonist.

For assay [2], the target named is T1, human EP4 receptor. Nature of the assay: Human EP4 receptor radioligand binding assay (Test 1). To be noted: [3H]-PGE2 1 nM, transfected HEK-293 cell membranes; for Results of Test 1 (Binding assay, % inh): at 10 μM; for inhibition at 10 µM: read-out: Results of Test 1 (Binding assay, % inh). On the set-up: expressed in transfected cells; host or cells: HEK-293 cell membranes. The procedure:
Test 1: Human EP4 Receptor Radioligand Binding Assay
To investigate binding properties of EP4 receptor ligands to human EP4 receptor, transfected HEK-293 cell membranes and [3H]-PGE2 (Perkin Elmer) were used. In 96-well plates the assay was carried out with a total reaction volume of 250 μl, containing 25 μl of membrane suspension (30 μg protein/well), 25 μl of [3H]-PGE2 (1 nM) in either absence or presence of 25 μl of either buffer or PGE2 (10 μM) for total and non-specific binding, respectively. Binding buffer contained 25 mM MES, 10 mM MgCl2 and 1 mM EDTA at pH 6.0. Plates were incubated at 25° C. for 120 minutes. After the incubation period, 200 μl of incubate were transferred to MultiScreen HTS, FB plates (Millipore), filtered and plates were washed 6 times with ice-cold 10 mM MES, 0.01% BSA at pH 6.0. Filters were dried and counted in a MicroBeta scintillation counter (Perkin-Elmer) using EcoScint liquid scintillation cocktail.
Percentage inhibition was calculated relating compounds activity to the 0% inhibition of the wells incubated with 1 nM [3H]-PGE2 alone (total binding) and 100% inhibition of the wells incubated with 1 nM [3H]-PGE2 plus 10 μM PGE2 (non-specific binding).

Some results are limits rather than exact numbers.

T1 sequence (P35408 whole entry): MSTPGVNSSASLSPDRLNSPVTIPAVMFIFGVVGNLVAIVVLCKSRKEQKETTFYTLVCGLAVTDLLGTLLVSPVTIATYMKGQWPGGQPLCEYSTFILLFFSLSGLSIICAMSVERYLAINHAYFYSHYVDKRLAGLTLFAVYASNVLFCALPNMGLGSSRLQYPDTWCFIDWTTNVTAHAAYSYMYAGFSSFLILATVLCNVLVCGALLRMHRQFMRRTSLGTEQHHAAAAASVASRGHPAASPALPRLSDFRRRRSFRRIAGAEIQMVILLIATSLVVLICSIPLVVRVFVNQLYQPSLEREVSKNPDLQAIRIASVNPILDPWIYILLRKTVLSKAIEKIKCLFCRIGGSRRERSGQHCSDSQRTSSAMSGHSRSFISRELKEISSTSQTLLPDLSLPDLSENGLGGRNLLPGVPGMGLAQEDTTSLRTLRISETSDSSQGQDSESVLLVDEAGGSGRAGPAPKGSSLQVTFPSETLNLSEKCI

On to `COc1cccc(-c2ccc(C)c(C(=O)Nc3c(C)cc(C(=O)O)cc3C)c2)c1` [Example 3, 4-(3′-Methoxy-4-methylbiphenyl-3-ylcarboxamido)-3,5-dimethylbenzoic acid], for which the “Results of Test 2 (Functional assay, antagonist % inh)” value at human EP4 receptor [1] is “$ (% inh >75)”. The “Results of Test 1 (Binding assay, % inh)” value at human EP4 receptor [2] was “# (% inh >75)”.

For `Cc1cc(C(=O)O)cc(Cl)c1NC(=O)c1nc(-c2cccc(Cl)c2)ccc1Cl` [Example 48, 3-Chloro-4-(3-chloro-6-(3-chlorophenyl)-picolinamido)-5-methylbenzoic acid], the inhibition at 10 µM at human EP4 receptor [1] and on human EP4 receptor [2] was more than 75% throughout.

`Cc1cc(C(=O)O)cc(C)c1NC(=O)c1nc(-c2cccc(Cl)c2)ccc1Cl` [Example 23, 4-(3-Chloro-6-(3-chlorophenyl)picolinamido)-3,5-dimethylbenzoic acid]: the inhibition at 10 µM on human EP4 receptor [1] and at human EP4 receptor [2] was more than 75% each time.

Consider `Cc1ccc(-c2cccc(F)c2)cc1C(=O)Nc1c(C)cc(C(=O)O)cc1C` [Example 4, 4-(3′-Fluoro-4-methylbiphenyl-3-ylcarboxamido)-3,5-dimethylbenzoic acid], for which the “Results of Test 2 (Functional assay, antagonist % inh)” value at human EP4 receptor [1] was “$ (% inh >75)”. Also, the “Results of Test 1 (Binding assay, % inh)” value on human EP4 receptor [2] is “# (% inh >75)”.

Regarding `COc1cccc(-c2ccc(C)c(C(=O)Nc3c(Cl)cc(C(=O)O)cc3Cl)c2)c1` [Example 8, 3,5-Dichloro-4-(3′-methoxy-4-methylbiphenyl-3-ylcarboxamido)benzoic acid], at human EP4 receptor [1], the “Results of Test 2 (Functional assay, antagonist % inh)” value was “$ (% inh >75)”. The “Results of Test 1 (Binding assay, % inh)” value at human EP4 receptor [2] is reported as “# (% inh >75)”.

Turning to `Cc1cc(C(=O)O)cc(Cl)c1NC(=O)c1cc(-c2cccc(Cl)c2)ccc1Cl` [Example 22, 3-Chloro-4-(3′,4-dichlorobiphenyl-3-ylcarboxamido)-5-methylbenzoic acid], the “Results of Test 2 (Functional assay, antagonist % inh)” value at human EP4 receptor [1] is recorded as “$ (% inh >75)”. For the same compound, the “Results of Test 1 (Binding assay, % inh)” value on human EP4 receptor [2] is “# (% inh >75)”.

For `Cc1ccc(-c2cccc(C#N)c2)cc1C(=O)Nc1c(C)cc(C(=O)O)cc1C` [Example 5, 4-(3′-Cyano-4-methylbiphenyl-3-ylcarboxamido)-3,5-dimethylbenzoic acid], the “Results of Test 2 (Functional assay, antagonist % inh)” value on human EP4 receptor [1] was “$ (% inh >75)”. For the same compound, the “Results of Test 1 (Binding assay, % inh)” value at human EP4 receptor [2] is reported as “# (% inh >75)”.

For `O=C(O)c1cc(Cl)c(NC(=O)c2nc(-c3cccc(Cl)c3)ccc2Cl)c(Cl)c1` [Example 47, 3,5-Dichloro-4-(3-chloro-6-(3-chlorophenyl)picolinamido)benzoic acid], the inhibition at 10 µM at human EP4 receptor [1] and on human EP4 receptor [2] was more than 75% throughout.

Turning to `COc1ccc(F)c(-c2ccc(C)c(C(=O)Nc3c(C)cc(C(=O)O)cc3C)c2)c1` [Example 12, 4-(2′-fluoro-5′-methoxy-4-methylbiphenyl-3-ylcarboxamido)-3,5-dimethylbenzoic acid], the “Results of Test 2 (Functional assay, antagonist % inh)” value on human EP4 receptor [1] is given as “$ (% inh >75)”. The “Results of Test 1 (Binding assay, % inh)” value on human EP4 receptor [2] was “# (% inh >75)”.

On to `Cc1cc(C(=O)O)cc(C)c1NC(=O)c1cc(-c2cccc(Cl)c2)ccc1Cl` [Example 14, 4-(3′,4-Dichlorobiphenyl-3-ylcarboxamido)-3,5-dimethylbenzoic acid], for which the “Results of Test 2 (Functional assay, antagonist % inh)” value on human EP4 receptor [1] is given as “$ (% inh >75)”. Besides, on human EP4 receptor [2], the “Results of Test 1 (Binding assay, % inh)” value is reported as “# (% inh >75)”.

Take `COc1cccc(-c2ccc(Cl)c(C(=O)Nc3c(Cl)cc(C(=O)O)cc3Cl)c2)c1` [Example 17, 3,5-Dichloro-4-(4-chloro-3′-methoxybiphenyl-3-ylcarboxamido)benzoic acid]: the “Results of Test 2 (Functional assay, antagonist % inh)” value on human EP4 receptor [1] is given as “$ (% inh >75)”. Further, the “Results of Test 1 (Binding assay, % inh)” value on human EP4 receptor [2] was “# (% inh >75)”.
